In paper PMC8985094, “Chemical constituents from Carica papaya Linn. leaves as potential cytotoxic, EGFR^wt and aromatase (CYP19A) inhibitors; a study supported by molecular docking” (RSC Advances, 2022):
Read-outs that look alike come from different tables or passages of the source.

Assays:
MCF-7 cell line = experiment: MTT cytotoxicity assay in breast cancer cell line (MCF-7); type: cell-based; details: Homo sapiens, read-out: IC50 on MCF-7 cell lines
Procedure: The cytotoxic effect of the isolated compounds from C. papaya on MCF-7 cells line was evaluated using MTT assay which measures metabolic activity as an indicator of cellular viability and proliferation.
Briefly, breast cancer cell line (MCF-7) were obtained from American Type Culture Collection and cultured in DMEM medium (Invitrogen/Life Technologies) supplemented with 10% FBS (Hyclone, USA). Insulin (10 μg mL^−1, Sigma-Aldrich, USA) and 1% penicillin–streptomycin. the cells were seeded in 96-well plates (VWR, Switzerland) at cell density 1.2–1.8 × 10^4 cells per well. […] After treatments, the medium was removed from all wells of the plate and 20 μL of the MTT reagent (Sigma-Aldrich, USA) (0.5 mg mL^−1) in PBS was added and incubated for 3.5 h at 37 °C. The solution was removed and 50 μL of DMSO was added, incubated for 5 min and the absorbance was measured at 570 nm.
(§1) Results are expressed as mean ± standard deviation (SD) based on triplicate experiments. The IC50 values of the tested compounds were determined using curve fitting in the R programming language and associated packages including Magrittr,[45] drc[46] and ggplot2.[47] Graphs and figures were generated using R console and PyMOL (PyMOL Molecular Graphics System, Schrödinger).

aromatase (CYP19A) = target: T1, aromatase (CYP19A) (Homo sapiens, UniProt P11511); experiment: Aromatase (CYP19A) inhibitor screening kit (fluorometric); type: biochemical
T1 construct: purchased Bio Vision
T1 sequence (P11511 1-503): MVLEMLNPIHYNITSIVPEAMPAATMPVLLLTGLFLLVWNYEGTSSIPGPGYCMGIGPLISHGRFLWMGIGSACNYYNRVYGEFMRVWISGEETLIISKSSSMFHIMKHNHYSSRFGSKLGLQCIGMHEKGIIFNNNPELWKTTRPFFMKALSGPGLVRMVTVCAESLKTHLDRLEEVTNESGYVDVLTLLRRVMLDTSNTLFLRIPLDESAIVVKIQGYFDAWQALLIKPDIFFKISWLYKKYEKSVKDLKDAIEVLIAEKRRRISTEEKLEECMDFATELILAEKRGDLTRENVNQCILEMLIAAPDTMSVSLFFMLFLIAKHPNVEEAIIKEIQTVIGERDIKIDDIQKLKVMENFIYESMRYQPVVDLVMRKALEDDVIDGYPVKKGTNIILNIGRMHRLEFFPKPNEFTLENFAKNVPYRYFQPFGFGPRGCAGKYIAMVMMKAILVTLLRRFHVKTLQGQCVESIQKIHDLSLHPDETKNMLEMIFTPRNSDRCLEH
Procedure: Breast cancer is mostly reliant on estrogen or progesterone, especially in postmenopausal females. […] Aromatase is the key enzyme that acts on androgen precursors for the synthesis of estrogen. Aromatase inhibitors are used to either block the production of estrogen or block the action of estrogen on its receptors and for treatment of estrogen dependant breast cancer.[32,33]
The compounds were dissolved in DMSO in concentrations ranging from 10 to 10^4 nM. The recombinant human aromatase stock was prepared according to the protocol and the samples were added and the plate was incubated for 10 min at 37 °C to allow tested compounds to interact with the aromatase.
as §1

EGFR^wt kinase = EGFR^wt kinase (Homo sapiens, UniProt P00533); experiment: EGFR^wt kinase inhibition assay (BPS Kinase Assay Kit, Kinase-Glo)
Sequence of EGFR^wt kinase (P00533 25-1210): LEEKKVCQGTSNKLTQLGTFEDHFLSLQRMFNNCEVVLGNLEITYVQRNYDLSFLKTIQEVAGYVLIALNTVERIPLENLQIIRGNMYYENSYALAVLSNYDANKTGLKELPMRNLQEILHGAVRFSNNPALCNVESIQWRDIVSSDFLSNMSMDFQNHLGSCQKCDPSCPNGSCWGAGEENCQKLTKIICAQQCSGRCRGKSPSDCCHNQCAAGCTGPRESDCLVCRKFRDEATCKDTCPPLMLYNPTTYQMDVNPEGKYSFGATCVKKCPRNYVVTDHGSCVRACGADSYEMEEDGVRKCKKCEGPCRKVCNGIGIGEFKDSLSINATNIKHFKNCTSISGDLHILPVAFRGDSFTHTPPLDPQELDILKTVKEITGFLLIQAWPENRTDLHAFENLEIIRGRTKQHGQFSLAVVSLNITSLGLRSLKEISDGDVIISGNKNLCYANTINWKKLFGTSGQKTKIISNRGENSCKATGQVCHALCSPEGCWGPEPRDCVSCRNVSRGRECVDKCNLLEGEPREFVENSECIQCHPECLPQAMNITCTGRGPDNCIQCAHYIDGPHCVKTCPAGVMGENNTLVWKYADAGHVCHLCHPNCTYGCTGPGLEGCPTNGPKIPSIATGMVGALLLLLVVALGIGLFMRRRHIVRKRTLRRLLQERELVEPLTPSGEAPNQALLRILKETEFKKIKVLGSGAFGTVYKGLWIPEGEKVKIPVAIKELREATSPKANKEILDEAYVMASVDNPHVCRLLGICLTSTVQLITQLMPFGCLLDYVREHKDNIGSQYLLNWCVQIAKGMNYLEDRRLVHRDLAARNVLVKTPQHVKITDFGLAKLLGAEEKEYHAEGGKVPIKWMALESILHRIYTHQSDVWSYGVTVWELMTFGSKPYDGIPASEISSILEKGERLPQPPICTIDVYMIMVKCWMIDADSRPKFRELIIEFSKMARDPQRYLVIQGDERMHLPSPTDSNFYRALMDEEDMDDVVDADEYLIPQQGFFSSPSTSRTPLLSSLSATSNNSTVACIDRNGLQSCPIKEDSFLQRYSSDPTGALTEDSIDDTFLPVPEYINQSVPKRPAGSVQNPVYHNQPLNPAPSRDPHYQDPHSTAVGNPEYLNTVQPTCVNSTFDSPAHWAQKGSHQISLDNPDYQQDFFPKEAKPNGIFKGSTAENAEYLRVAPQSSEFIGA
Procedure: Then, the reaction was stopped by the addition of a detecting reagent (Kinase-Glo Max reagent), followed by incubation at room temperature for another 15 min. Finally, luminescence was measured using the microplate Robonik P2000 ELISA Reader.

[1] = MCF7, MTT assay, 24 h treatment, mean ± SD
[2] = in vitro enzymatic inhibition, recombinant human aromatase, mean ± SD, read-out: IC50 Aromatase

SMILES	IC50 (MCF-7 cell line; [1])	IC50 (aromatase (CYP19A); [2])	IC50 (EGFR^wt kinase)	IC50 (MCF-7 cell line; MCF7, 24 h)	IC50 (aromatase (CYP19A))
C[C@@H]1O[C@@H](OC[C@H]2O[C@@H](Oc3c(-c4ccc(O)cc4)oc4cc(O)cc(O)c4c3=O)[C@H](O)[C@@H](O)[C@@H]2O)[C@H](O)[C@H](O)[C@H]1O [Compound 8, kaempferol-3-O-rutinoside]	4940 ± 280 nM	92.8 ± 5.44 nM	41.1 ± 2.1 nM	–	–
C[C@@H]1O[C@@H](O[C@H]2[C@H](Oc3c(-c4ccc(O)cc4)oc4cc(O)cc(O)c4c3=O)O[C@H](CO)[C@@H](O)[C@@H]2O)[C@H](O)[C@H](O)[C@H]1O [Compound 6, kaempferol 3-O-(2′′-O-α-L-rhamnopyranosyl)-β-D-glucopyranoside]	3580 ± 200 nM	335 ± 19.6 nM	64.5 ± 3.3 nM	–	–
C[C@@H]1O[C@@H](OC[C@H]2O[C@@H](Oc3c(-c4ccc(O)c(O)c4)oc4cc(O)cc(O)c4c3=O)[C@H](O)[C@@H](O)[C@@H]2O)[C@H](O)[C@H](O)[C@H]1O [Compound 4, quercetin-3-O-rutinoside]	25600 ± 1460 nM	148 ± 8.64 nM	44.5 ± 2.3 nM	–	–
C[C@@H]1O[C@@H](OC[C@H]2O[C@@H](Oc3c(-c4ccc(O)cc4)oc4cc(O)cc(O)c4c3=O)[C@H](O[C@@H]3O[C@@H](C)[C@H](O)[C@@H](O)[C@H]3O)[C@@H](O)[C@@H]2O)[C@H](O)[C@H](O)[C@H]1O [Compound 5, kaempferol 3-O-(2′′,6′′-di-α-O-rhamnopyranosyl)-β-glucopyranoside]	2470 ± 140 nM	77.4 ± 4.53 nM	89.6 ± 4.6 nM	–	–
COc1cc(-c2oc3cc(O)cc(O)c3c(=O)c2OC2OC(CO)C(O)C(O)C2O)ccc1O [Compound 9, isorhamnetin 3-O-β-D-glucopyranoside]	9510 ± 540 nM	436 ± 25.6 nM	100 ± 5.1 nM	–	–
O=c1c(O[C@@H]2O[C@H](CO)[C@@H](O)[C@H](O)[C@H]2O)c(-c2ccc(O)c(O)c2)oc2cc(O)cc(O)c12 [Compound 7, quercetin-3-O-β-D-glucopyranoside]	13100 ± 750 nM	354 ± 20.7 nM	83.4 ± 4.2 nM	–	–
COC(=O)c1cc(O)c(O)c(O)c1 [Compound 2, methyl gallate]	1110 ± 60 nM	94.1 ± 5.51 nM	37.3 ± 1.9 nM	–	–
CC1(C)C[C@H](O)C[C@@]2(C)OC(=O)C=C12 [Compound 3, loliolide]	28200 ± 1610 nM	208 ± 12.2 nM	68.8 ± 3.5 nM	–	–
C[C@@H]1N[C@@H]2CCCCCCCC(=O)O[C@H]3CC[C@@H](CCCCCCCC(=O)O[C@H]1CC2)N[C@H]3C [Compound 1, carpaine]	–	–	47.6 ± 2.4 nM	13700 ± 780 nM	108 ± 6.32 nM
